# Earlier results as cited in US20120122237A1, “HOMOGENEOUS NONCOMPETITIVE DETECTION OF POST TRANSLATIONAL MODIFICATIONS FOR USE IN HIGH THROUGHPUT ASSAYS” (priority 2010, published 2012).
# Columns and labels:
# [1] = test system: Polyclonal antibody for 3-PBA; conditions: competitive ELISA
# [2] = test system: Polyclonal antibody for 3-PBA
# [3] = test system: Monoclonal Antibody for Atrazine
# [4] = test system: Monoclonal Antibody for Atrazine; conditions: competitive ELISA
Compound,Crossreactivity (%) ELISA [1] [%],Crossreactivity (%) PHAIA [2] [%],Crossreactivity (%) PHAIA [3] [%],Crossreactivity (%) ELISA [4] [%]
4-hydroxy 3-PBA,98,0,,
"O=C(O)c1cccc(Oc2ccccc2)c1 [3-PBA, 3-phenoxybenzoic acid]",100,100,,
O=Cc1cccc(Oc2ccccc2)c1 [3-pheonoxy aldehyde],10,3,,
CCNc1nc(Cl)nc(NC(C)C)n1 [atrazine],,,100,100
CCNc1nc(Cl)nc(NC(C)(C)C#N)n1 [cyanazine],,,0,91
CC(C)Nc1nc(Cl)nc(NC(C)C)n1 [propazine],,,144,116
CCNc1nc(Cl)nc(NCC)n1 [simazine],,,0,48
